Measurements reported in PubChem BioAssay (NCI).
Where “and” joins values, the source holds several entries; their conditions need not be identical. Equal values may be shown once.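 Test compounds were applied to cells in 96-well plates for 48 hours at 5 doses. GI50 marks 50% less growth. TGI denotes the concentration required for complete inhibition of growth.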

Legend:
Assay in all cases: NCI-60 cell line screen, 48 h
MDA-MB-231 breast = system: MDA-MB-231 breast
PC-3 prostate = system: PC-3 prostate
SK-MEL-2 melanoma = system: SK-MEL-2 melanoma
MCF7 breast = system: MCF7 breast
KM12 colon = system: KM12 colon
NCI/ADR-RES ovarian = system: NCI/ADR-RES ovarian
M14 melanoma = system: M14 melanoma
HCT-15 colon = system: HCT-15 colon
HOP-92 NSCLC = system: HOP-92 NSCLC
SNB-19 CNS = system: SNB-19 CNS
MDA-MB-435 = system: MDA-MB-435
HOP-62 NSCLC = system: HOP-62 NSCLC
SK-OV-3 ovarian = system: SK-OV-3 ovarian
HL-60(TB) leukemia = system: HL-60(TB) leukemia
786-0 renal = system: 786-0 renal
HCC-2998 colon = system: HCC-2998 colon
UACC-62 melanoma = system: UACC-62 melanoma
UACC-257 melanoma = system: UACC-257 melanoma
NCI-H460 lung = system: NCI-H460 lung
OVCAR-3 ovarian = system: OVCAR-3 ovarian
SK-MEL-5 melanoma = system: SK-MEL-5 melanoma
K-562 leukemia = system: K-562 leukemia
SF-268 CNS = system: SF-268 CNS
IGROV1 ovarian = system: IGROV1 ovarian
UO-31 renal = system: UO-31 renal
ACHN renal = system: ACHN renal
NCI-H23 lung = system: NCI-H23 lung
HS 578T breast = system: HS 578T breast
SR leukemia = system: SR leukemia
OVCAR-8 ovarian = system: OVCAR-8 ovarian
A498 renal = system: A498 renal
SW-620 colon = system: SW-620 colon
SF-295 CNS = system: SF-295 CNS
SK-MEL-28 melanoma = system: SK-MEL-28 melanoma
CCRF-CEM leukemia = system: CCRF-CEM leukemia
BT-549 breast = system: BT-549 breast
U251 CNS = system: U251 CNS
MOLT-4 leukemia = system: MOLT-4 leukemia
HCT-116 colon = system: HCT-116 colon
DU-145 prostate = system: DU-145 prostate
CAKI-1 renal = system: CAKI-1 renal
SN12C renal = system: SN12C renal
EKVX NSCLC = system: EKVX NSCLC
OVCAR-4 ovarian = system: OVCAR-4 ovarian
NCI-H226 lung = system: NCI-H226 lung
HT29 colon = system: HT29 colon
NCI-H522 lung = system: NCI-H522 lung
T-47D breast = system: T-47D breast
MALME-3M melanoma = system: MALME-3M melanoma
SNB-75 CNS = system: SNB-75 CNS
RPMI-8226 leukemia = system: RPMI-8226 leukemia
LOX IMVI melanoma = system: LOX IMVI melanoma
TK-10 renal = system: TK-10 renal
COLO 205 colon = system: COLO 205 colon
A549 NSCLC = system: A549 NSCLC
SF-539 CNS = system: SF-539 CNS
OVCAR-5 ovarian = system: OVCAR-5 ovarian
RXF 393 renal = system: RXF 393 renal

In the case of CO[C@@H](C)Cn1c(=O)n(C)c2cnc3ccc(-c4cncc(C(C)(C)O)c4)cc3c21, the GI50 (MDA-MB-231 breast) was 166 nM and 44 nM, the TGI (MDA-MB-231 breast) was 3870 nM and 2120 nM and the GI50 (PC-3 prostate) was 161 nM and 44.5 nM. For the same molecule, the GI50 (SK-MEL-2 melanoma) was 105 nM, the TGI (SK-MEL-2 melanoma) was 494 nM and the GI50 (MCF7 breast) was 140 nM and 59.3 nM. For the same molecule, the TGI (MCF7 breast) was 47900 nM and > 10000 nM, the GI50 (KM12 colon) was 326 nM and 122 nM and the TGI (KM12 colon) was 12700 nM and > 10000 nM. For the same molecule, the GI50 (NCI/ADR-RES ovarian) was 1060 nM and 384 nM, the TGI (NCI/ADR-RES ovarian) was 14000 nM and > 10000 nM and the GI50 (M14 melanoma) was 149 nM and 111 nM. The TGI (M14 melanoma) was 5100 nM and > 4680 nM, the GI50 (HCT-15 colon) was 141 nM and 77.5 nM and the TGI (HCT-15 colon) was 23200 nM and > 10000 nM. For the same molecule, the GI50 (HOP-92 NSCLC) was 109 nM and 27.9 nM, the TGI (HOP-92 NSCLC) was 644 nM and 188 nM and the GI50 (SNB-19 CNS) was 143 nM and 77.3 nM. For the same molecule, the TGI (SNB-19 CNS) was 7790 nM and > 10000 nM, the GI50 (MDA-MB-435) was 146 nM and 71.8 nM and the TGI (MDA-MB-435) was 3440 nM and 1160 nM. The GI50 (HOP-62 NSCLC) was 126 nM and 81 nM, the TGI (HOP-62 NSCLC) was 1390 nM and 1410 nM and the GI50 (SK-OV-3 ovarian) was 48.8 nM and 42.4 nM. For the same molecule, the TGI (SK-OV-3 ovarian) was 358 nM and 285 nM, the GI50 (HL-60(TB) leukemia) was 717 nM and 361 nM and the TGI (HL-60(TB) leukemia) was 9780 nM and > 6740 nM. For the same molecule, the GI50 (786-0 renal) was 59 nM and 41.8 nM, the TGI (786-0 renal) was 2200 nM and 1990 nM and the GI50 (HCC-2998 colon) was 257 nM and 88.5 nM. The TGI (HCC-2998 colon) was 13800 nM and > 10000 nM, the GI50 (UACC-62 melanoma) was 97.6 nM and 39.4 nM and the TGI (UACC-62 melanoma) was 413 nM and 255 nM. For the same molecule, the GI50 (UACC-257 melanoma) was 195 nM and 93.2 nM, the TGI (UACC-257 melanoma) was 741 nM and 538 nM and the GI50 (NCI-H460 lung) was 143 nM and 53.9 nM. The TGI (NCI-H460 lung) was > 100000 nM, the GI50 (OVCAR-3 ovarian) was 119 nM and 65.6 nM and the TGI (OVCAR-3 ovarian) was 6490 nM and > 3390 nM. The GI50 (SK-MEL-5 melanoma) was 103 nM and 99.2 nM, the TGI (SK-MEL-5 melanoma) was 408 nM and 418 nM and the GI50 (K-562 leukemia) was 302 nM and 132 nM. The TGI (K-562 leukemia) was > 100000 nM, the GI50 (SF-268 CNS) was 140 nM and 79.6 nM and the TGI (SF-268 CNS) was 16800 nM and > 5750 nM. For the same molecule, the GI50 (IGROV1 ovarian) was 40.7 nM and 30.3 nM, the TGI (IGROV1 ovarian) was 249 nM and 212 nM and the GI50 (UO-31 renal) was 34.8 nM and 23.7 nM. For the same molecule, the TGI (UO-31 renal) was 346 nM and 336 nM, the GI50 (ACHN renal) was 135 nM and 97.5 nM and the TGI (ACHN renal) was > 100000 nM. The GI50 (NCI-H23 lung) was 203 nM and 133 nM, the TGI (NCI-H23 lung) was 29800 nM and > 6670 nM and the GI50 (HS 578T breast) was 28.6 nM. The TGI (HS 578T breast) was 191 nM, the GI50 (SR leukemia) was 153 nM and 113 nM and the TGI (SR leukemia) was 14900 nM and > 10000 nM. For the same molecule, the GI50 (OVCAR-8 ovarian) was 154 nM and 69.7 nM, the TGI (OVCAR-8 ovarian) was 2900 nM and > 4100 nM and the GI50 (A498 renal) was 27.3 nM and 10.9 nM. For the same molecule, the TGI (A498 renal) was 124 nM and 59.1 nM, the GI50 (SW-620 colon) was 248 nM and 110 nM and the TGI (SW-620 colon) was 16400 nM and > 10000 nM. For the same molecule, the GI50 (SF-295 CNS) was 49.5 nM and 37.3 nM, the TGI (SF-295 CNS) was 422 nM and 328 nM and the GI50 (SK-MEL-28 melanoma) was 143 nM and 77.3 nM. For the same molecule, the TGI (SK-MEL-28 melanoma) was 2500 nM and 573 nM, the GI50 (CCRF-CEM leukemia) was 203 nM and 87.4 nM and the TGI (CCRF-CEM leukemia) was > 100000 nM. The GI50 (BT-549 breast) was 54 nM and 41 nM, the TGI (BT-549 breast) was 707 nM and 444 nM and the GI50 (U251 CNS) was 127 nM and 63.3 nM. The TGI (U251 CNS) was 12600 nM and > 10000 nM, the GI50 (MOLT-4 leukemia) was 196 nM and 163 nM and the TGI (MOLT-4 leukemia) was 1770 nM and 4100 nM. The GI50 (HCT-116 colon) was 303 nM and 187 nM, the TGI (HCT-116 colon) was 10800 nM and > 7650 nM and the GI50 (DU-145 prostate) was 93.5 nM and 59.1 nM. The TGI (DU-145 prostate) was > 100000 nM, the GI50 (CAKI-1 renal) was 50.5 nM and the TGI (CAKI-1 renal) was 512 nM. For the same molecule, the GI50 (SN12C renal) was 112 nM and 54.4 nM, the TGI (SN12C renal) was 70000 nM and > 10000 nM and the GI50 (EKVX NSCLC) was 69.1 nM and 66.9 nM. The TGI (EKVX NSCLC) was 847 nM and 1400 nM, the GI50 (OVCAR-4 ovarian) was 105 nM and 51.4 nM and the TGI (OVCAR-4 ovarian) was 676 nM and 667 nM. The GI50 (NCI-H226 lung) was 40.6 nM, the TGI (NCI-H226 lung) was 477 nM and the GI50 (HT29 colon) was 93.3 nM and 75.6 nM. The TGI (HT29 colon) was 12700 nM and > 6870 nM, the GI50 (NCI-H522 lung) was 51.3 nM and the TGI (NCI-H522 lung) was 653 nM. For the same molecule, the GI50 (T-47D breast) was 40.9 nM and 28.4 nM, the TGI (T-47D breast) was 378 nM and 208 nM and the GI50 (MALME-3M melanoma) was 58.4 nM and 63.8 nM. The TGI (MALME-3M melanoma) was 317 nM and 480 nM, the GI50 (SNB-75 CNS) was 23.5 nM and 21.7 nM and the TGI (SNB-75 CNS) was 264 nM and 163 nM. The GI50 (RPMI-8226 leukemia) was 186 nM and 59 nM, the TGI (RPMI-8226 leukemia) was 2060 nM and 968 nM and the GI50 (LOX IMVI melanoma) was 52.6 nM and 37.6 nM. For the same molecule, the TGI (LOX IMVI melanoma) was 1270 nM and 1320 nM, the GI50 (TK-10 renal) was 120 nM and 69.4 nM and the TGI (TK-10 renal) was 719 nM and 536 nM. The GI50 (COLO 205 colon) was 145 nM and 92.4 nM, the TGI (COLO 205 colon) was 1510 nM and 1490 nM and the GI50 (A549 NSCLC) was 76.8 nM and 53.5 nM. The TGI (A549 NSCLC) was 1570 nM and > 3220 nM, the GI50 (SF-539 CNS) was 105 nM and 52.5 nM and the TGI (SF-539 CNS) was 696 nM and 414 nM. The GI50 (OVCAR-5 ovarian) was 191 nM and 95.6 nM, the TGI (OVCAR-5 ovarian) was > 100000 nM and the GI50 (RXF 393 renal) was 41.6 nM and 32.5 nM. The TGI (RXF 393 renal) was 341 nM and 216 nM.
